Experimental data as given in ChEMBL document CHEMBL1124016, “Antihypertensive activity in a series of 1-piperazino-3-phenylindans with potent 5-HT2-antagonistic activity” (J Med Chem, 1988).

How the values were obtained:
[1] = target: Serotonin 2 (5-HT2) receptor (Rattus norvegicus, UniProt P30994+P08909+P14842); test: Inhibition of [3H]spiperone binding to 5-hydroxytryptamine 2 receptor from rat cortical membranes; type: cell membranes, Membrane
[2] = target: T1, Adrenergic receptor alpha-1 (Rattus norvegicus, UniProt P15823+P23944+P43140); test: Inhibition of [3H]prazosin binding to alpha-1 adrenergic receptor from rat cortical membranes; type: cell membranes, Membrane
T1 sequence (P15823 whole entry): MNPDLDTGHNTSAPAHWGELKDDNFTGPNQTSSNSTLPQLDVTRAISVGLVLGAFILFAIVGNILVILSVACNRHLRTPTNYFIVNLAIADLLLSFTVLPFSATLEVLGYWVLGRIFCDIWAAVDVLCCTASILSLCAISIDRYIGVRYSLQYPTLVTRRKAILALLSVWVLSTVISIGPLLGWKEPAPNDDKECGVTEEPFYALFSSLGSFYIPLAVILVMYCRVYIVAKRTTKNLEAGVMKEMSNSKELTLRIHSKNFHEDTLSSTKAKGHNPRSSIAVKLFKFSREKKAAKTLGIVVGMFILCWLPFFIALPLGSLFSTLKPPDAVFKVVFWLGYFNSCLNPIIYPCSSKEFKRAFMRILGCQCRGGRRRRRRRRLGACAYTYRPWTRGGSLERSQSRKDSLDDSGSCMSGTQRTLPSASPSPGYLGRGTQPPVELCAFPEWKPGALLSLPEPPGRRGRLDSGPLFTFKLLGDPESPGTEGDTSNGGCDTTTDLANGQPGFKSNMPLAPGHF
T1 sequence (P23944 whole entry): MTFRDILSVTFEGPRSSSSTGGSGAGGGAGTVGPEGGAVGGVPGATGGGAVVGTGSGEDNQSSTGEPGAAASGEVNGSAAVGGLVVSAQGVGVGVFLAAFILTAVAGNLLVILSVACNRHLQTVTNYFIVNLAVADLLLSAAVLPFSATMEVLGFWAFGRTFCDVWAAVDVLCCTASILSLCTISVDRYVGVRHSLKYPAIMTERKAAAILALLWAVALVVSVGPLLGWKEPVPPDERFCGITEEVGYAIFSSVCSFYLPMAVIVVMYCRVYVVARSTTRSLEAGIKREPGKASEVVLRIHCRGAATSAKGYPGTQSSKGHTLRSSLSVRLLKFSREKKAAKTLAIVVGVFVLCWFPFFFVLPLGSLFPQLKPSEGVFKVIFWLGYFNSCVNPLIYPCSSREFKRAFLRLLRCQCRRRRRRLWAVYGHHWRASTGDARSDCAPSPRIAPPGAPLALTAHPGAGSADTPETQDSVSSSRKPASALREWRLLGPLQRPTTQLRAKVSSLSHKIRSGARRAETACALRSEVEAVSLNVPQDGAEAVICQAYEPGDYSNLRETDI
T1 sequence (P43140 whole entry): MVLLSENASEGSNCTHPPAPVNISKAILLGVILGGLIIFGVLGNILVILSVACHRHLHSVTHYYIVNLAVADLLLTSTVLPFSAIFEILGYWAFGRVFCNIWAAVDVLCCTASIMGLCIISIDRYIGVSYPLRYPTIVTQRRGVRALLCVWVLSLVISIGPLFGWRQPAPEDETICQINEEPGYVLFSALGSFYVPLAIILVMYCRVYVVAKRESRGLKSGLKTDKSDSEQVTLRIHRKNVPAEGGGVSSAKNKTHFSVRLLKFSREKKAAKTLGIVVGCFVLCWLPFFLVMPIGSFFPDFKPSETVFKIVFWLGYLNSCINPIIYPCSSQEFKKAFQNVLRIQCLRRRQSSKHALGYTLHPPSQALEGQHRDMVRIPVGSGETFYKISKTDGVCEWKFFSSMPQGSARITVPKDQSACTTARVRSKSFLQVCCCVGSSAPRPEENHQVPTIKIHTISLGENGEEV

Mus musculus = species on record: Mus musculus; test: Inhibition of methyl phenidate induced stereotyped gnawing in mice; type: functional
Rattus norvegicus [3] = test: Inhibition of 5-HT induced pressor response in pithed rats, after intravenous administration of 0.02 mg/kg; type: functional
Rattus norvegicus [4] = test: Inhibition of phenylephrine induced pressor response in pithed rats (following i.v. administration of […]); type: functional; settings: route intravenous
Rattus norvegicus [5] = species on record: Rattus norvegicus; test: Inhibition of L-5-HTP (L-5-hydroxytryptophan) induced head twitches in rat; type: functional
Rattus norvegicus [6] = test: Percent reduction of blood pressure in spontaneously hypertensive rat after 10 min at intraperitoneal administration of 5 mg/kg; type: functional
D(2) dopamine receptor = D(2) dopamine receptor (Rattus norvegicus, UniProt P61169); test: Inhibition of [3H]spiperone binding to Dopamine receptor D2 from rat striatal membranes; type: cell membranes, Membrane
Rattus norvegicus [7] = test: Inhibition of 5-HT induced pressor response in pithed rats, after intravenous administration, activity is expressed as ED50; type: functional
Rattus norvegicus [8] = test: Inhibition of 5-HT induced pressor response in pithed rats, after intravenous administration; type: functional
[9] = Rattus norvegicus, read-out: ED50

Chain of D(2) dopamine receptor (P61169 whole entry): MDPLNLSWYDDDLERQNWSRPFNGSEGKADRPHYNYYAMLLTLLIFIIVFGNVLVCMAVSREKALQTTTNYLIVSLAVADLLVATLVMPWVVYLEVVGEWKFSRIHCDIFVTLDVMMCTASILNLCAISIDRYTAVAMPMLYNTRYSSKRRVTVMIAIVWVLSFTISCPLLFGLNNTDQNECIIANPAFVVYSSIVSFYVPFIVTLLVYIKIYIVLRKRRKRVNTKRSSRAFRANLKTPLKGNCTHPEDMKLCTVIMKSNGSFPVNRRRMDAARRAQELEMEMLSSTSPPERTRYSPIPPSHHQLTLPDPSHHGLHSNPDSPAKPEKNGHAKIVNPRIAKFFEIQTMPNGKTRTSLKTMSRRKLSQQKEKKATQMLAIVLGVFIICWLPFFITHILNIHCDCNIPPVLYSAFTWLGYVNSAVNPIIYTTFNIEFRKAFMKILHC

Row | Compound | IC50 [1] [nM] | IC50 [2] [nM] | ED50 (Mus musculus) [µmol/kg] | Change (Rattus norvegicus [3]) [%] | Change (Rattus norvegicus [4]) [%] | ED50 (Rattus norvegicus [5]; [9]) [µmol/kg] | Reduction (Rattus norvegicus [6]) [%] | IC50 (D(2) dopamine receptor) [nM] | ED50 (Rattus norvegicus [7]) [µmol/kg] | ED50 (Rattus norvegicus [8]) [µmol/kg] | ED50 (Rattus norvegicus [5]) [µmol/kg]
1 | CN1CCN(C2CC(c3ccc(F)cc3)c3ccc(F)cc32)CC1 (stereo unspecified) | 7.7 | 22 | 11 | -85 | -19 | 0.079 | -15 |  |  |  | 
2 | Fc1ccc(C2CC(N3CCN(CCN4CCN=C4S)CC3)c3ccccc32)cc1.O=C(O)/C=C\C(=O)O.O=C(O)/C=C\C(=O)O (stereo unspecified) | 3.3 |  | > 61 |  |  | 0.43 | -18 |  |  |  | 
3 | O=C1NCCN1CCN1CCN(C(=O)c2ccccc2)CC1 | 4800 |  | > 132 |  |  | > 8.2 | 6 | > 1000 |  |  | 
4 | O=C1NCCN1CCN1CCN(C(=O)c2ccc(F)cc2)CC1 | 58000 |  | > 125 |  |  | 1.8 | 11 | > 1000 |  |  | 
5 | CN1CCN(CCN2CCN(C3CC(c4ccc(F)cc4)c4ccccc43)CC2)C1=O.Cl.Cl.O (stereo unspecified) | 13 |  | > 80 |  |  |  | -6 |  |  |  | 
6 | O=C(O)/C=C\C(=O)O.O=C(O)/C=C\C(=O)O.O=C1NCCN1CCN1CCN([C@H]2C[C@H](c3ccccc3F)c3ccccc32)CC1 |  |  | > 62 | 0 | 3 | > 31 | -8 |  |  |  | 
7 | O=C(O)/C=C\C(=O)O.O=C(O)/C=C\C(=O)O.O=C1NCCN1CCN1CCN([C@@H]2C[C@@H](c3ccccc3F)c3ccccc32)CC1 |  |  | > 62 | -18 | 13 | 17 | -3 |  |  |  | 
8 | O=C1NCCN1CCN1CCN(Cc2ccccc2)CC1 | > 1000 | > 10000 | > 139 |  |  | > 4.3 | 15 | > 1000 |  |  | 
9 | Cl.Cl.O=C1OCCN1CCCN1CCN(C2CC(c3ccc(F)cc3)c3ccc(F)cc32)CC1 (stereo unspecified) | 22 |  |  | -32 |  |  | -12 | 30 |  |  | 
10 | Fc1ccc([C@@H]2C[C@@H](N3CCN(CCN4CCN=C4S)CC3)c3cc(F)ccc32)cc1.O=C(O)/C=C\C(=O)O.O=C(O)/C=C\C(=O)O | 2.2 | 13 |  |  |  |  | -32 | 29 |  |  | 
11 | Cl.Cl.O=C1CCCN1CCN1CCN(C2CC(c3ccc(F)cc3)c3ccc(F)cc32)CC1 (stereo unspecified) | 12 | 36 |  |  |  |  | 0 | 85 |  |  | 
12 | CCN1CCN(CCN2CCN(C3CC(c4ccc(F)cc4)c4ccc(F)cc43)CC2)C1=O.Cl.Cl (stereo unspecified) | 4.8 | 34 | > 75 |  |  |  | 4 | 25 |  |  | 
13 | Fc1ccc(C2CC(N3CCN(CCN4CCCN=C4S)CC3)c3cc(F)ccc32)cc1.O=C(O)/C=C\C(=O)O.O=C(O)/C=C\C(=O)O (stereo unspecified) | 7.5 |  | 23 |  |  |  | -13 | 51 |  |  | 
14 | Cl.Cl.OC1=NCCN1CCN1CCN(C2CC(c3ccc(Cl)cc3)c3ccccc32)CC1 (stereo unspecified) | 37 |  | > 80 | 13 | 15 | 40 | 3 | 800 |  |  | 
15 | Fc1ccc(C2CC(N3CCNCC3)c3ccccc32)cc1 (stereo unspecified) | 30 | 100 | > 108 | -13 | 7 | 2.5 | 10 | 1900 |  |  | 
16 | O=C1NCCN1CCN1CCN([C@H]2C[C@H](c3ccccc3)c3ccccc32)CC1 |  |  |  | -11 | 0 |  | -7 |  |  |  | 
17 | Cc1nc2sccn2c(=O)c1CCN1CCC(=C(c2ccc(F)cc2)c2ccc(F)cc2)CC1 [RITANSERIN] |  | 47 | > 84 | -95 | 16 | 1.2 | 10 |  |  |  | 
18 | O=C(c1ccc(F)cc1)C1CCN(CCn2c(=O)[nH]c3ccccc3c2=O)CC1 [KETANSERIN] |  | 15 | > 101 | -62 | -14 | 0.79 | -32 | 1800 | 3.2 | 0.024 | 
19 | O=C(O)/C=C\C(=O)O.O=C(O)/C=C\C(=O)O.O=C1NCCCN1CCN1CCN(C2CC(c3ccc(F)cc3)c3ccc(F)cc32)CC1 (stereo unspecified) | 11 |  | > 59 |  |  |  | 0 |  |  |  | 
20 | Cl.Cl.Oc1nc2ccccc2n1CCN1CCN(C2CC(c3ccc(F)cc3)c3ccc(F)cc32)CC1 (stereo unspecified) | 9.4 | 160 | > 72 |  |  |  | -15 | 25 |  |  | 
21 | COc1cc2nc(N3CCN(C(=O)c4ccco4)CC3)nc(N)c2cc1OC [PRAZOSIN] |  |  | > 95 | 0 | -100 | 0.45 | -32 |  | 0.0095 | > 12 | 
22 | O=C(O)/C=C\C(=O)O.O=C(O)/C=C\C(=O)O.O=C1NCCN1CCN1CCN(C2CC(c3ccccc3)c3ccccc32)CC1 (stereo unspecified) | 12 |  | > 64 |  |  |  |  | 1900 |  |  | 26
23 | COc1ccc(C2CC(N3CCN(CCN4CCNC4=O)CC3)c3ccccc32)cc1 (stereo unspecified) | 250 | 1400 | > 95 | -19 | 69 | > 48 | 3 | 15000 |  |  | 
